These are literature values, as cited in patent US20070122486A1, “Nanoparticulate insulin” (Elan Pharma International Limited, priority 2001, published 2007).

The conditions of this data set: physiological conditions.

“Soluble insulin: Available soluble composition of insulin, a 5.8 kD protein hormone”: the duration of activity entry is reported as “about six” and the onset of activity entry is listed as “about 30 minutes”.
